Experimental data from ChEMBL document CHEMBL1201862, “PubChem BioAssay data set” (2004).
Activity calls are given as the source filed them.

Tests used:
Assay type in all cases: functional
[1] = biological target: Dual specificity protein kinase CLK2 (Homo sapiens, UniProt P49760)
[2] = biological target: Dual specificity mitogen-activated protein kinase kinase 1 (Homo sapiens, UniProt Q02750); test: Navigating the Kinome. Panel member name: MAP2K1
[3] = biological target: Tyrosine-protein kinase JAK2 (Homo sapiens, UniProt O60674);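 further: JAK2 tested as one member of a kinase panel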
[4] = biological target: Serine/threonine-protein kinase PLK3 (Homo sapiens, UniProt Q9H4B4)
[5] = biological target: ALK tyrosine kinase receptor (Homo sapiens, UniProt Q9UM73);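 further: ALK tested as one member of a kinase panel screen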
[6] = biological target: Tyrosine-protein kinase HCK (Homo sapiens, UniProt P08631); test: Navigating the Kinome. Panel member name: HCK
[7] = biological target: Tyrosine-protein kinase SYK (Homo sapiens, UniProt P43405)
[8] = biological target: Tyrosine-protein kinase Lck (Homo sapiens, UniProt P06239);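 further: lck was assayed as one member of a kinase panel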
[9] = biological target: MAP kinase-activated protein kinase 5 (Homo sapiens, UniProt Q8IW41);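 further: measured as one member of a kinome panel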
Sequence of MAP kinase-activated protein kinase 5 (Q8IW41 whole entry): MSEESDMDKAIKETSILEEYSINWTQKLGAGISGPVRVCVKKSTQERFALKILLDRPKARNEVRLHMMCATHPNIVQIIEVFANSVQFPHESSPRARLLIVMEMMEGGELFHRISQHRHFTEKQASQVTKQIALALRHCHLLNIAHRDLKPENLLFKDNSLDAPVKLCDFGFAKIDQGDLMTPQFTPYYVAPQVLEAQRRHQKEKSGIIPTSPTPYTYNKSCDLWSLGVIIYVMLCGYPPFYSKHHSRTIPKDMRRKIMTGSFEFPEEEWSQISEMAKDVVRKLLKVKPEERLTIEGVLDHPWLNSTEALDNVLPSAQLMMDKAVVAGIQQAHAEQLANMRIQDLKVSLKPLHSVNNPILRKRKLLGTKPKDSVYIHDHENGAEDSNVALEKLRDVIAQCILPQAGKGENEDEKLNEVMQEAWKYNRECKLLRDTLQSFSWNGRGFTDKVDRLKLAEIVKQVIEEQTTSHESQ

[10] = biological target: Tyrosine-protein kinase BTK (Homo sapiens, UniProt Q06187)
[11] = biological target: Casein kinase II subunit alpha (Homo sapiens, UniProt P68400)
[12] = biological target: Tyrosine-protein kinase Lyn (Homo sapiens, UniProt P07948);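 further: lyn as one member of a kinase panel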
Sequence of Tyrosine-protein kinase Lyn (P07948 whole entry): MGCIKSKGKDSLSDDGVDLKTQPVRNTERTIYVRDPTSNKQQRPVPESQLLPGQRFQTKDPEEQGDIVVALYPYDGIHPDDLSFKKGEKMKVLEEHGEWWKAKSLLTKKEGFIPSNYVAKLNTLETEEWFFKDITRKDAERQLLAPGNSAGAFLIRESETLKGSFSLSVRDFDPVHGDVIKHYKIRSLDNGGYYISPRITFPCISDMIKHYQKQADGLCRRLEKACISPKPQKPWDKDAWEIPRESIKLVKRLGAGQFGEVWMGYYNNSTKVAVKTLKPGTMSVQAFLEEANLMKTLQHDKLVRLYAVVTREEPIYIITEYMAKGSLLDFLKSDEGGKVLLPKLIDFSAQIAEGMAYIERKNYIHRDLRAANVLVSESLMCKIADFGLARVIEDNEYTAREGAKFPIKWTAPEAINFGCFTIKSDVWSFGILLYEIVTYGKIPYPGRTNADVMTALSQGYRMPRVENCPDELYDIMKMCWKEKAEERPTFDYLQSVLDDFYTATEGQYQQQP

[13] = biological target: Tyrosine-protein kinase ITK/TSK (Homo sapiens, UniProt Q08881);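 further: affinity for ITK measured as one member of a broad kinase panel profiling binding across the kinome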
[14] = biological target: Proto-oncogene tyrosine-protein kinase ROS (Homo sapiens, UniProt P08922);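 further: ROS1 tested as one member of a kinome-wide kinase panel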
[15] = biological target: Tyrosine-protein kinase Blk (Homo sapiens, UniProt P51451);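 further: obtained as one member of a kinome-wide kinase assay panel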
[16] = biological target: Calcium/calmodulin-dependent protein kinase kinase 2 (Homo sapiens, UniProt Q96RR4); test: Navigating the Kinome. Panel member name: CAMKK2
Insulin receptor = Insulin receptor (Homo sapiens, UniProt P06213);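 further: insulin receptor kinase tested as one member of a kinome-wide kinase panel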
Sequence of Insulin receptor (P06213 28-758 limits assumed): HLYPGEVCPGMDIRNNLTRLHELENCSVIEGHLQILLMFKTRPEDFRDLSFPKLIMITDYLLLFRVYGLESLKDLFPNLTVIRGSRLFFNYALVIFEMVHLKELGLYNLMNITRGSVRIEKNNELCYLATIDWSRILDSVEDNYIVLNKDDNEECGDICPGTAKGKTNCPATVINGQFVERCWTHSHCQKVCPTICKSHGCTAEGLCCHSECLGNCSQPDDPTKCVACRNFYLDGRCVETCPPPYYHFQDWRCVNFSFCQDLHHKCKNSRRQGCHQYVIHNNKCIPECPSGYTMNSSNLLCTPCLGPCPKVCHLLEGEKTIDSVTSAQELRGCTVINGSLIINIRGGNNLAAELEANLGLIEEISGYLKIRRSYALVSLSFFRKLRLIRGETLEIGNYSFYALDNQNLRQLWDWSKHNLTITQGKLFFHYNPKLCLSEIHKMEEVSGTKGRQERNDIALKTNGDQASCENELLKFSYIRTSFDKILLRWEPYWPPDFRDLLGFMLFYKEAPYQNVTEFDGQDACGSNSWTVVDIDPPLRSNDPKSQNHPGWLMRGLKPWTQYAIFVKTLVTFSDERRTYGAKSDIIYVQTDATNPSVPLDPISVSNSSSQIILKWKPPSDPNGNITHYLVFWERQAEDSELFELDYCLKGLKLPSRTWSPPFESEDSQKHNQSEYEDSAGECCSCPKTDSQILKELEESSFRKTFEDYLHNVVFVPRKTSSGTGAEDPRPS
Sequence of Insulin receptor (P06213 763-1382 limits assumed): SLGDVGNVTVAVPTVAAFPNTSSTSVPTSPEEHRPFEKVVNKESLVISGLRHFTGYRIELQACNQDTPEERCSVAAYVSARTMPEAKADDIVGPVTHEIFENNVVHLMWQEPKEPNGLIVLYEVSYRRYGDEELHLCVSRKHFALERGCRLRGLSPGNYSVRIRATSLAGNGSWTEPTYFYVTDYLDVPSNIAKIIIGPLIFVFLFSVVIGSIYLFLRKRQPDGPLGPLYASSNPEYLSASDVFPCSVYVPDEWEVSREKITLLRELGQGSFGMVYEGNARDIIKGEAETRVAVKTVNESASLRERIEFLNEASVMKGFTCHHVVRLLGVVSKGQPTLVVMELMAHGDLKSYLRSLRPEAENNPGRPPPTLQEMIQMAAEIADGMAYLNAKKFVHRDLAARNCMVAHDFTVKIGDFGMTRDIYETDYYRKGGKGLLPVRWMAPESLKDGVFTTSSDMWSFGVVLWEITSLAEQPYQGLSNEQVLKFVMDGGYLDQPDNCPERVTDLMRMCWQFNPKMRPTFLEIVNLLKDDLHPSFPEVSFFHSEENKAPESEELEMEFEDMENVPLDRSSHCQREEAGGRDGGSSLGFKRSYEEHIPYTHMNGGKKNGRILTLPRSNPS

[17] = biological target: Protein-tyrosine kinase 2-beta (Homo sapiens, UniProt Q14289)
[18] = biological target: Mitogen-activated protein kinase kinase kinase 20 (Homo sapiens, UniProt Q9NYL2)
[19] = biological target: Serine/threonine-protein kinase pim-3 (Homo sapiens, UniProt Q86V86);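 further: value obtained as one member of a broad kinase panel profiling effort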
[20] = biological target: Non-receptor tyrosine-protein kinase TYK2 (Homo sapiens, UniProt P29597)
[21] = biological target: Proto-oncogene tyrosine-protein kinase Src (Homo sapiens, UniProt P12931);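 further: SRC entry within a kinome-wide kinase profiling panel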
Sequence of Proto-oncogene tyrosine-protein kinase Src (P12931 2-536 limits assumed): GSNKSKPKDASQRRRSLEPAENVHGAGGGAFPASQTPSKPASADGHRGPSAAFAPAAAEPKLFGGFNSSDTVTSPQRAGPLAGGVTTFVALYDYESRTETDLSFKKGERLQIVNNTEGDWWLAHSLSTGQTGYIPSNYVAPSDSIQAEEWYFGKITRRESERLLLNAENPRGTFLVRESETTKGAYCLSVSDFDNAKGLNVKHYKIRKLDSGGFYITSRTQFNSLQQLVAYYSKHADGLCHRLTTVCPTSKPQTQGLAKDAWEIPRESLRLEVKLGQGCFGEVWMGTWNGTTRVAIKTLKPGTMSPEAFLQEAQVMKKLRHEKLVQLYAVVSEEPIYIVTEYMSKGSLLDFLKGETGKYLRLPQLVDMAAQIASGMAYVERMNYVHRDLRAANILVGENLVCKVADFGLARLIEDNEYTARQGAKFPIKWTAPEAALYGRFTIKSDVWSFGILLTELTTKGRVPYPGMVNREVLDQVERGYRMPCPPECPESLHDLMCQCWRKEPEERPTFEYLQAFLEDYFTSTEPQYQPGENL

[22] = biological target: Hepatocyte growth factor receptor (Homo sapiens, UniProt P08581);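 further: kinase panel profiling across the kinome, with MET as the panel member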
Activated CDC42 kinase 1 = Activated CDC42 kinase 1 (Homo sapiens, UniProt Q07912); test: Navigating the Kinome. Panel member name: ACK1
[23] = biological target: Receptor-type tyrosine-protein kinase FLT3 (Homo sapiens, UniProt P36888);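 further: FLT3 was tested as one member of a kinome-wide kinase panel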
Sequence of Receptor-type tyrosine-protein kinase FLT3 (P36888 whole entry): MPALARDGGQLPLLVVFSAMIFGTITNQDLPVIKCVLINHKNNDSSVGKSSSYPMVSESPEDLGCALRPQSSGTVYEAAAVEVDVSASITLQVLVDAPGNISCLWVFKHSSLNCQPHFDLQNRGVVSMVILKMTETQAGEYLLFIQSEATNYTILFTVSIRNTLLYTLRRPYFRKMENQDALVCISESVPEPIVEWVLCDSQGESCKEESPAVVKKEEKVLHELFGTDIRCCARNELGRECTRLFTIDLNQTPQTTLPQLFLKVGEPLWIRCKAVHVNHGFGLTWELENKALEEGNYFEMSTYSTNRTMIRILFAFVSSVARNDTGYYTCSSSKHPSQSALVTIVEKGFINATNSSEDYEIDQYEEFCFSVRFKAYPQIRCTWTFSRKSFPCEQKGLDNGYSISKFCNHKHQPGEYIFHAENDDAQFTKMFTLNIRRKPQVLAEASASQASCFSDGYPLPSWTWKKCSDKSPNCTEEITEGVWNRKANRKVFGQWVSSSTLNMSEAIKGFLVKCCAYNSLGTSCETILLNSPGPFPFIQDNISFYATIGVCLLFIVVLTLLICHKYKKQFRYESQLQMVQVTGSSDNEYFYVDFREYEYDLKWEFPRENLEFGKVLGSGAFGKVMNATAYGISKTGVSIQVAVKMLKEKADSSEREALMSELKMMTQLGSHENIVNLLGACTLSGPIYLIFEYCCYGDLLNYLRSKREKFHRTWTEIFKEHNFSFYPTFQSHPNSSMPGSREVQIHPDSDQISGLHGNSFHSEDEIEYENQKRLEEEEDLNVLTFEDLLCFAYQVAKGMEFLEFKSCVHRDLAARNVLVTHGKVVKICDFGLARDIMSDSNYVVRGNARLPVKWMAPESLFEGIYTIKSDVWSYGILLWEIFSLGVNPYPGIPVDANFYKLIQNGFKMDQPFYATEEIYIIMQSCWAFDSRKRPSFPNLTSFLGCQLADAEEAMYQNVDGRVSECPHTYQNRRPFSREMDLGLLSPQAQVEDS

[24] = biological target: Tyrosine-protein kinase ABL1 (Homo sapiens, UniProt P00519)
[25] = biological target: Calcium/calmodulin-dependent protein kinase type II subunit beta (Homo sapiens, UniProt Q13554)
[26] = biological target: Cyclin-dependent kinase 5 (Homo sapiens, UniProt Q00535);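 further: CDK5 measured as one member of a kinase profiling panel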
Sequence of Cyclin-dependent kinase 5 (Q00535 whole entry): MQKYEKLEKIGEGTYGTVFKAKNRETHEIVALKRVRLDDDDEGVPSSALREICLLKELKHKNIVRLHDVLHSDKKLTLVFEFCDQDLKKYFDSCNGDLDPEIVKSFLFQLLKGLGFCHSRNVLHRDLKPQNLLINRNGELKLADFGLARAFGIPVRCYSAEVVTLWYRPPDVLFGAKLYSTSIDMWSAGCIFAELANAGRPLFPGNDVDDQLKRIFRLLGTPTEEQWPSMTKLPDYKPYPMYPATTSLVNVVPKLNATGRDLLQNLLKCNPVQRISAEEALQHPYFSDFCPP

[27] = biological target: Dual specificity tyrosine-phosphorylation-regulated kinase 1B (Homo sapiens, UniProt Q9Y463); test: Navigating the Kinome. Panel member name: DYRK1B
[28] = biological target: Leucine-rich repeat serine/threonine-protein kinase 2 (Homo sapiens, UniProt Q5S007);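 further: value from a broad kinome-wide panel profiling study in which LRRK2 was one of the kinases tested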
Aurora kinase B = Aurora kinase B (Homo sapiens, UniProt Q96GD4)
[29] = biological target: RAC-alpha serine/threonine-protein kinase (Homo sapiens, UniProt P31749);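 further: AKT1 affinity measured as one member of a kinome-wide kinase profiling panel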
[30] = biological target: Rho-associated protein kinase 1 (Homo sapiens, UniProt Q13464);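 further: measured within a broad kinome-wide panel profiling many kinases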
[31] = biological target: Tyrosine-protein kinase Fer (Homo sapiens, UniProt P16591);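 further: FER tested as one member of a kinome panel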
[32] = biological target: Calcium/calmodulin-dependent protein kinase type 1 (Homo sapiens, UniProt Q14012)
[33] = biological target: Homeodomain-interacting protein kinase 4 (Homo sapiens, UniProt Q8NE63)
[34] = biological target: Cyclin-dependent kinase 1 (Homo sapiens, UniProt P06493);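 further: Kinome-wide panel profiling, with the target listed as panel member CDC2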
[35] = biological target: Serine/threonine-protein kinase pim-2 (Homo sapiens, UniProt Q9P1W9);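 further: value comes from a broad kinase panel profiling study in which PIM2 was one of the panel members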
[36] = biological target: Serine/threonine-protein kinase PLK1 (Homo sapiens, UniProt P53350);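 further: PLK1 measured as one member of a kinome-wide profiling panel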
[37] = biological target: Glycogen synthase kinase-3 beta (Homo sapiens, UniProt P49841);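 further: value comes from a broad kinome profiling panel, with GSK3B as the panel member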
[38] = biological target: cAMP-dependent protein kinase catalytic subunit alpha (Homo sapiens, UniProt P17612)
[39] = biological target: Lymphokine-activated killer T-cell-originated protein kinase (Homo sapiens, UniProt Q96KB5);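 further: value comes from a kinase panel screen in which TOPK was one of the panel members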
[40] = biological target: Serine/threonine-protein kinase MRCK alpha (Homo sapiens, UniProt Q5VT25)
[41] = biological target: Macrophage colony-stimulating factor 1 receptor (Homo sapiens, UniProt P07333);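 further: value comes from the Navigating the Kinome screening panel, CSF1R member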
[42] = biological target: Dual specificity tyrosine-phosphorylation-regulated kinase 1A (Homo sapiens, UniProt Q13627);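 further: measured against DYRK1A as one member of a broad kinome profiling panel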
[43] = biological target: Mitogen-activated protein kinase 14 (Homo sapiens, UniProt Q16539);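 further: part of a kinome-wide panel, MAPK14 entry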
[44] = biological target: Serine/threonine-protein kinase 3 (Homo sapiens, UniProt Q13188);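 further: measured as one member of a kinome-wide kinase panel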
Sequence of Serine/threonine-protein kinase 3 (Q13188 whole entry): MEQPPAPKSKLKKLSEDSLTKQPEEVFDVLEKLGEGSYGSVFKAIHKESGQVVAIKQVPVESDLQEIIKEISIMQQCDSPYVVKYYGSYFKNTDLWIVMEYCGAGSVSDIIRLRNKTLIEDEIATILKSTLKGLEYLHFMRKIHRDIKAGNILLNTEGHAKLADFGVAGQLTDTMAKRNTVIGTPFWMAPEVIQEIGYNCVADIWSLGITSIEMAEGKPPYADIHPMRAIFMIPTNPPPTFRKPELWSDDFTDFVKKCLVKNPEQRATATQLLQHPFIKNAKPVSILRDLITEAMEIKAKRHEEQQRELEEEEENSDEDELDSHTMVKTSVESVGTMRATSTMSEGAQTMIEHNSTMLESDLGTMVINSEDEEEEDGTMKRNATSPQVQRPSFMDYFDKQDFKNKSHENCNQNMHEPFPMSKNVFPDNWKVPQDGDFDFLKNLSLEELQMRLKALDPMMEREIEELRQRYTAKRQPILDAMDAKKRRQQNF

Structure (SMILES): NCCCn1cc(-c2cc(-c3cc4ccccc4s3)c3[nH]ncc3c2)c2nc(N)ncc21
- Ki [1]: > 2.51 µM (inactive)
- Ki [2]: > 3.16 µM (inactive)
- Ki [3]: > 2 µM (inactive)
- Ki [4]: > 7.94 µM (inactive)
- Ki [5]: > 3.98 µM (inactive)
- Ki [6]: > 3.16 µM (inactive)
- Ki [7]: 100 nM (active)
- Ki [8]: > 3.98 µM (inactive)
- Ki [9]: 200 nM (active)
- Ki [10]: > 3.98 µM (inactive)
- Ki [11]: 100 nM (active)
- Ki [12]: > 1.58 µM (inactive)
- Ki [13]: > 1.58 µM (inactive)
- Ki [14]: 200 nM (active)
- Ki [15]: > 1.58 µM (inactive)
- Ki [16]: > 2.51 µM (inactive)
- Ki (Insulin receptor): > 5.01 µM (inactive)
- Ki [17]: 251 nM (active)
- Ki [18]: 2.51 µM (active)
- Ki [19]: 31.6 nM (active)
- Ki [20]: > 2 µM (inactive)
- Ki [21]: > 2 µM (inactive)
- Ki [22]: > 2 µM (inactive)
- Ki (Activated CDC42 kinase 1): > 3.98 µM (inactive)
- Ki [23]: > 1.26 µM (inactive)
- Ki [24]: > 2.51 µM (inactive)
- Ki [25]: 3.16 µM (active)
- Ki [26]: 1.58 µM (active)
- Ki [27]: 631 nM (active)
- Ki [28]: 251 nM (active)
- Ki (Aurora kinase B): > 2 µM (inactive)
- Ki [29]: 251 nM (active)
- Ki [30]: 79.4 nM (active)
- Ki [31]: > 1.58 µM (inactive)
- Ki [32]: 3.16 µM (active)
- Ki [33]: 501 nM (active)
- Ki [34]: 31.6 nM (active)
- Ki [35]: 100 nM (active)
- Ki [36]: > 7.94 µM (inactive)
- Ki [37]: 316 nM (active)
- Ki [38]: 39.8 nM (active)
- Ki [39]: 2.51 µM (active)
- Ki [40]: 631 nM (active)
- Ki [41]: > 2.51 µM (inactive)
- Ki [42]: 1 µM (active)
- Ki [43]: > 3.98 µM (inactive)
- Ki [44]: 501 nM (active)
